Test results reported in US10975068B2, “6-aminopyridin-3-yl thiazoles as modulators of RORγT” (Janssen Pharmaceutica NV, priority 2016, dated 2021).
Read-outs that look alike come from different tables or passages of the source.

Tests used:
[1] = target: human RORγt ligand binding domain (RORγt LBD) (Homo sapiens (Human), UniProt P51449); assay: RORγt ThermoFluor® assay (thermal shift binding)
Method in brief: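 Binding was inferred from thermal stabilisation (ΔTm) of the E. coli-expressed RORγt LBD (0.065 mg/mL), monitored by 1,8-ANS (60 μM) emission at 500 nm during a 1 °C/min ramp. Buffer was Hepes 100 mM pH 7.0 with NaCl, GSH and Tween-20.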

full-length human RORγt = full-length human RORγt (Homo sapiens (Human), UniProt P51449); assay: RORγt (full-length human) reporter assay, Conditions B or C; assay type: cell-based; conditions: for RORγt (FL) Reporter Assay B or C, % inhibition (value marked *): marked *: footnote not given; for inhibition at 3 µM: at 3 μM compound concentration, read-out: RORγt (FL) Reporter Assay B or C, % inhibition; for RORγt (FL) Reporter Assay B or C, % inhibition (value marked ***): marked ***: footnote not given
full-length human RORγt, sequence (P51449 other isoform, or with tags, fused parts or gaps): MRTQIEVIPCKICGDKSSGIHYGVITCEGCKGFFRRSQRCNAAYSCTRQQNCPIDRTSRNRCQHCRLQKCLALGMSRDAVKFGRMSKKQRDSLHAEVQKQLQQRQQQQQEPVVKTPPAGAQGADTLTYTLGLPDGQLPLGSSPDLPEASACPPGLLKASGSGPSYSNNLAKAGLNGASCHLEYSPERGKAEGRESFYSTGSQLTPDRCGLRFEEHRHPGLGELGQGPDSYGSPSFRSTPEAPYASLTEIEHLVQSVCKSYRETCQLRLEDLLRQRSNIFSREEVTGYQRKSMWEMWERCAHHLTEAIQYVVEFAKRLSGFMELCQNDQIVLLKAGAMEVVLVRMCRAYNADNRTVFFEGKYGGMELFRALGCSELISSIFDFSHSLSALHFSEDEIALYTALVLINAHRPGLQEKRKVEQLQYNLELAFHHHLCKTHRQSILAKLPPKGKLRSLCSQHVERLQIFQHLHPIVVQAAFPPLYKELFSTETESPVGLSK
Method in brief: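 Readout is dual luciferase: firefly (GAL4-driven) normalized to DMSO-only and saturating-reference controls, then to CMV-Renilla. Full-length human RORγt fused to GAL4-DBD was transiently expressed in HEK293T; compound exposure ran overnight (16-20 h) starting 4-6 h after transfection, final FBS 1.3%, DMSO 0.1%.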

[2] = read-out: ThermoFluor® Assay, Kd
[3] = Conditions B or C, read-out: RORγt (FL) Reporter Assay B or C, IC50
[4] = read-out: RORγt (FL) Reporter Assay B or C, IC50

human RORγt ligand binding domain (RORγt LBD), sequence (P51449 other isoform, or with tags, fused parts or gaps): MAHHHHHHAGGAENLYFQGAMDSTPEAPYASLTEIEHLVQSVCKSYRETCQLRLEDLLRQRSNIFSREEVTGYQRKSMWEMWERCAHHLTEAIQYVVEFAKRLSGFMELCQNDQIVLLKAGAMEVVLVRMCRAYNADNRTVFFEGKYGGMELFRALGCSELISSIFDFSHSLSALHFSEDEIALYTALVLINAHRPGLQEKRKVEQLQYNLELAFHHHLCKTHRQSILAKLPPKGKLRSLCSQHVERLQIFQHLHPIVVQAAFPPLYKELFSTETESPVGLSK

In the case of `[2H]C([2H])(NC(=O)c1nc(C(=O)N2CCC[C@@H]2C)c(-c2cnc(NC(C)(C)C)cc2C(F)(F)F)s1)C(C)(C)O` [Example 181, (S)-5-(6-(tert-Butylamino)-4-(trifluoromethyl)pyridine-3-yl)-N-(2-hydroxy-2-methylpropyl-1,1-d2)-4-(2-methylpyrrolidine-1-carbonyl)thiazole-2-carboxamide], the Kd [1, 2] is reported as 0.0011 µM, the “RORγt (FL) Reporter Assay B or C, % inhibition (value marked *)” value (“RORγt … % inhibition (value marked *)” below) (full-length human RORγt; Conditions B or C) is reported as 112* % and the IC50 (full-length human RORγt; [3]) is reported as 0.0085 µM.
`C[C@H]1CCCN1C(=O)c1nc(C(=O)NC2CCS(=O)(=O)CC2)sc1-c1cnc(NC2(C)CCC2)cc1C(F)F` [Example 324, (S)-5-(4-(Difluoromethyl)-6-((1-methylcyclobutyl)amino)pyridin-3-yl)-N-(1,1-dioxidotetrahydro-2H-thiopyran-4-yl)-4-(2-methylpyrrolidine-1-carbonyl)thiazole-2-carboxamide] was tested, and the Kd [1, 2] was 0.0024 µM, the inhibition at 3 µM (full-length human RORγt) was 93% and the IC50 (full-length human RORγt; [4]) was 0.038 µM.
`O=C(N[C@H]1CC[C@@H]1O)c1nc(C(=O)N2C3CCC2CC3)c(-c2cnc(N[C@@H](C3CC3)C(F)(F)F)cc2C(F)F)s1` (relative stereo) [Example 444, 4-((1s,4s)-7-Azabicyclo[2.2.1]heptane-7-carbonyl)-5-(6-(((S)-1-cyclopropyl-2,2,2-trifluoroethyl)amino)-4-(difluoromethyl)pyridin-3-yl)-N-((1S*,2S*)-2-hydroxycyclobutyl)thiazole-2-carboxamide] was tested, and the Kd [1, 2] was 0.0023 µM, the inhibition at 3 µM (full-length human RORγt) was 102% and the IC50 (full-length human RORγt; [4]) was 0.0045 µM.
`C[C@H]1CCCN1C(=O)c1nc(C(=O)NCC(O)(C(F)(F)F)C(F)(F)F)sc1-c1cnc(NC(C)(C)C)cc1C(F)F` [Example 264, 5-[6-(tert-Butylamino)-4-(difluoromethyl)-3-pyridyl]-4-[(2S)-2-methylpyrrolidine-1-carbonyl]-N-[3,3,3-trifluoro-2-hydroxy-2-(trifluoromethyl)propyl]thiazole-2-carboxamide] was tested, and the Kd [1, 2] was 0.0049 µM, the inhibition at 3 µM (full-length human RORγt) was 112% and the IC50 (full-length human RORγt; [4]) was 0.028 µM.
With `CC[C@H](Nc1cc(C(F)(F)F)c(-c2sc(C(=O)NCC(C)(C)O)nc2C(=O)N2C3CCC2CC3)cn1)C1CC1` (stereo in doubt) [Example 130] the Kd ([1]; ThermoFluor® Assay, Kd (μM)) was 0.0016 µM, the “RORγt (FL) Reporter Assay B or C, % inhibition (value marked ***)” value (full-length human RORγt; Conditions B or C) was 98*** % and the IC50 (full-length human RORγt; RORγt (FL) Reporter Assay B or C, IC50 (μM), Conditions B or C) was 0.03 µM.
With `C[C@@H](O)[C@@H](C)NC(=O)c1nc(C(=O)N2CCC[C@@H]2C)c(-c2cnc(NC(C)(C)C)cc2C(F)(F)F)s1` (relative stereo) [Example 237, 5-(6-(tert-Butylamino)-4-(trifluoromethyl)pyridin-3-yl)-N-((2R*,3R*)-3-hydroxybutan-2-yl)-4-((S)-2-methylpyrrolidine-1-carbonyl)thiazole-2-carboxamide] the Kd [1, 2] was 0.0023 µM, the “RORγt … % inhibition (value marked *)” value (full-length human RORγt; Conditions B or C) was 101* % and the IC50 (full-length human RORγt; [3]) was 0.031 µM.
`CC[C@H](Nc1cc(C(F)F)c(-c2sc(C(=O)N[C@@H](C)C(C)(C)O)nc2C(=O)N2CC(F)(F)C[C@@H]2C)cn1)C(F)(F)F` [Example 246, 4-[(2S)-4,4-Difluoro-2-methyl-pyrrolidine-1-carbonyl]-5-[4-(difluoromethyl)-6-[[(1S)-1-(trifluoromethyl)propyl]amino]-3-pyridyl]-N-[(1S)-2-hydroxy-1,2-dimethyl-propyl]thiazole-2-carboxamide] was tested, and the Kd [1, 2] was 0.0013 µM, the “RORγt (FL) Reporter Assay B or C, % inhibition (value marked ***)” value (full-length human RORγt; Conditions B or C) was 112*** % and the IC50 (full-length human RORγt; [3]) was 0.011 µM.
Molecule `C[C@H]1CCCN1C(=O)c1nc(C(=O)N2CC[C@@](C)(O)C2)sc1-c1cnc(NC(C)(C)C)cc1C(F)(F)F` (relative stereo) [Example 366, (5-(6-(tert-Butylamino)-4-(trifluoromethyl)pyridin-3-yl)-2-((R*)-3-hydroxy-3-methylpyrrolidine-1-carbonyl)thiazol-4-yl)-((S)-2-methylpyrrolidin-1-yl)methanone] has a Kd [1, 2] of 0.01 µM, an inhibition at 3 µM (full-length human RORγt) of 97% and an IC50 (full-length human RORγt; [4]) of 0.063 µM.
`C[C@H](Nc1cc(C(F)F)c(-c2sc(C(=O)N[C@H]3COC[C@@H]3O)nc2C(=O)N2CC(F)(F)C[C@@H]2C)cn1)C(F)(F)F` [Example 190] was tested, and the Kd [1, 2] was 0.0038 µM, the “RORγt … % inhibition (value marked *)” value (full-length human RORγt; Conditions B or C) was 104* % and the IC50 (full-length human RORγt; [3]) was 0.034 µM.
For `C[C@H](NC(=O)c1nc(C(=O)N2CCC[C@@H]2C)c(-c2cnc(NC(C)(C)C)cc2C(F)(F)F)s1)[C@@H](C)O` (relative stereo) [Example 238, 5-(6-(tert-Butylamino)-4-(trifluoromethyl)pyridin-3-yl)-N-((2S*,3R*)-3-hydroxybutan-2-yl)-4-((S)-2-methylpyrrolidine-1-carbonyl)thiazole-2-carboxamide], the Kd [1, 2] was 0.0055 µM, the “RORγt … % inhibition (value marked *)” value (full-length human RORγt; Conditions B or C) was 92* % and the IC50 (full-length human RORγt; [3]) was 0.029 µM.
In the case of `C[C@H](Nc1cc(C(F)F)c(-c2sc(C(=O)N[C@@H](C)C(C)(C)O)nc2C(=O)N2CC(F)(F)C[C@@H]2C)cn1)C1CC1` [Example 193, 5-(6-(((S)-1-Cyclopropylethyl)amino)-4-(difluoromethyl)pyridine-3-yl)-4-((S)-4,4-difluoro-2-methylpyrrolidine-1-carbonyl)-N—((S)-3-hydroxy-3-methylbutan-2-yl)thiazole-2-carboxamide], the Kd [1, 2] is reported as 0.0026 µM, the “RORγt … % inhibition (value marked *)” value (full-length human RORγt; Conditions B or C) is reported as 82* % and the IC50 (full-length human RORγt; [3]) is reported as 0.032 µM.
`C[C@H]1CCCN1C(=O)c1nc(C(=O)N2CC[C@H](O)C2)sc1-c1cnc(NC(C)(C)C)cc1C(F)(F)F` [Example 350, [5-[6-(tert-Butylamino)-4-(trifluoromethyl)-3-pyridyl]-2-[(3S)-3-hydroxypyrrolidine-1-carbonyl]thiazol-4-yl]-[(2S)-2-methylpyrrolidin-1-yl]methanone] was tested, and the Kd [1, 2] was 0.0083 µM, the inhibition at 3 µM (full-length human RORγt) was 110% and the IC50 (full-length human RORγt; [4]) was 0.03 µM.
`CC[C@H](Nc1cc(C(F)F)c(-c2sc(C(=O)NC3CCS(=O)(=O)CC3)nc2C(=O)N2C3CCC2CC3)cn1)C(F)(F)F` [Example 154] was tested, and the Kd [1, 2] was 0.001 µM, the “RORγt … % inhibition (value marked *)” value (full-length human RORγt; Conditions B or C) was 99* % and the IC50 (full-length human RORγt; [3]) was 0.098 µM.
In the case of `CC[C@H](Nc1cc(C(F)F)c(-c2sc(C(=O)N[C@H]3C[C@H](O)C3)nc2C(=O)N2C3CCC2CC3)cn1)C(F)(F)F` [Example 222, 4-((1s,4s)-7-Azabicyclo[2.2.1]heptane-7-carbonyl)-5-(4-(difluoromethyl)-6-(((1S)-1-(trifluoromethyl)propyl)amino)-3-pyridyl)-N-((1r,3S)-3-hydroxycyclobutyl)thiazole-2-carboxamide], the Kd [1, 2] is reported as 0.01 µM, the “RORγt … % inhibition (value marked *)” value (full-length human RORγt; Conditions B or C) is reported as 113* % and the IC50 (full-length human RORγt; [3]) is reported as 0.012 µM.
With `C[C@H]1CCCN1C(=O)c1nc(C(=O)NCC(C)(C)O)sc1-c1cnc(NC(C)(C)C(F)(F)F)cc1C(F)(F)F` [Example 132, (S)—N-(2-Hydroxy-2-methylpropyl)-4-(2-methylpyrrolidine-1-carbonyl)-5-(6-((1,1,1-trifluoro-2-methylpropan-2-yl)amino)-4-(trifluoromethyl)pyridin-3-yl)thiazole-2-carboxamide] the Kd [1, 2] was 0.00041 µM, the “RORγt … % inhibition (value marked *)” value (full-length human RORγt; Conditions B or C) was 112* % and the IC50 (full-length human RORγt; [3]) was 0.014 µM.
For `CC[C@H](Nc1cc(C(F)F)c(-c2sc(C(=O)N[C@H]3CC[C@H](O)C3)nc2C(=O)N2CCC[C@@H]2C)cn1)C(F)(F)F` [Example 398, 5-[4-(Difluoromethyl)-6-[[(1S)-1-(trifluoromethyl)propyl]amino]-3-pyridyl]-N-[(1S,3S)-3-hydroxycyclopentyl]-4-[(2S)-2-methylpyrrolidine-1-carbonyl]thiazole-2-carboxamide], the Kd [1, 2] was 0.0015 µM, the inhibition at 3 µM (full-length human RORγt) was 109% and the IC50 (full-length human RORγt; [4]) was 0.039 µM.
In the case of `C[C@@H](Nc1cc(C(F)(F)F)c(-c2sc(C(=O)NCC(C)(C)O)nc2C(=O)N2CCC[C@@H]2C)cn1)C1CC1` [Example 48, 5-(6-(((R)-1-Cyclopropylethyl)amino)-4-(trifluoromethyl)pyridin-3-yl)-N-(2-hydroxy-2-methylpropyl)-4-((S)-2-methylpyrrolidine-1-carbonyl)thiazole-2-carboxamide], the Kd [1, 2] is reported as 0.011 µM, the “RORγt … % inhibition (value marked *)” value (full-length human RORγt; Conditions B or C) is reported as 111* % and the IC50 (full-length human RORγt; [3]) is reported as 0.023 µM.
`C[C@H]1CCCN1C(=O)c1nc(C(=O)NC[C@@H](O)C(F)(F)F)sc1-c1cnc(NC(C)(C)C)cc1C(F)(F)F` (relative stereo) [Example 354, 5-(6-(tert-Butylamino)-4-(trifluoromethyl)pyridin-3-yl)-4-((S)-2-methylpyrrolidine-1-carbonyl)-N—((R*)-3,3,3-trifluoro-2-hydroxypropyl)thiazole-2-carboxamide] was tested, and the Kd [1, 2] was 0.00097 µM, the inhibition at 3 µM (full-length human RORγt) was 93% and the IC50 (full-length human RORγt; [4]) was 0.015 µM.
`C[C@H]1CCCN1C(=O)c1nc(C(=O)NCC(C)(C)O)sc1-c1cnc(NCC2(C(F)(F)F)CCC2)cc1C(F)F` [Example 274, 5-[4-(Difluoromethyl)-6-[[1-(trifluoromethyl)cyclobutyl]methylamino]-3-pyridyl]-N-(2-hydroxy-2-methyl-propyl)-4-[(2S)-2-methylpyrrolidine-1-carbonyl]thiazole-2-carboxamide] showed a Kd [1, 2] of 0.00097 µM, an inhibition at 3 µM (full-length human RORγt) of 96% and an IC50 (full-length human RORγt; [4]) of 0.036 µM.
In the case of `C[C@H]1CCCN1C(=O)c1nc(C(=O)NCC(C)(C)O)sc1-c1cnc(NC(C2CC2)C2CC2)cc1C(F)F` [Example 179, (S)-5-(6-((Dicyclopropylmethyl)amino)-4-(difluoromethyl)pyridine-3-yl)-N-(2-hydroxy-2-methylpropyl)-4-(2-methylpyrrolidine-1-carbonyl)thiazole-2-carboxamide], the Kd [1, 2] is reported as 0.0022 µM, the “RORγt … % inhibition (value marked *)” value (full-length human RORγt; Conditions B or C) is reported as 105* % and the IC50 (full-length human RORγt; [3]) is reported as 0.018 µM.
